Like-named read-outs stand apart in the source and are kept apart here.
Tests used:
[1] = molecular target: IMP-1 (Serratia marcescens, UniProt P52699); test: Enzyme activity: IC50 in fluorescence assay with cephalosporin substrate FC5; assay type: biochemical; settings: 100 pM IMP-1, 10 μM FC5, 10 min pre-incubation
Method: (§1) The Class B beta-lactamases activities were measured in the presence of the test inhibitors in a fluorescence assay against an in-house synthesized fluorescent cephalosporin substrate FC5 (Berkel, et. al. J. Med. Chem. 2013, 56(17), 6945). The enzymes (NDM-1, IMP-1) and the substrate were diluted in 20 mM HEPES, pH 7.4, supplemented with 300 mM NaCl and 10 μM ZnSO4. In the assay, the final concentration of enzyme was 50 pM, and 100 pM for NDM-1, and IMP-1 respectively, and the final concentration of FC5 was 1.5 μM for NDM-1 and 10 μM for IMP-1. The test inhibitors/compounds were dissolved in dimethylsulfoxide (DMSO) and diluted in the assay with assay buffer (20 mM HEPES, pH 7.4, supplemented with 5% DMSO, 300 mM NaCl and 10 μM ZnSO4), resulting in a final concentration range of 0.008 μM to 25 μM. The assays were performed in 96-well microplate (flat bottom, black). The test inhibitors were incubated with the MBL enzyme for 10 min at room temperature, followed by addition the substrate and the fluorescence was recorded immediately (λex 380 nm, λem 460 nm) on a microplate reader. Using the initial velocity data plotted against the inhibitor concentration, the half-maximal inhibitory concentrations were calculated by an IC50 curve-fitting model in GraphPad Prism 9 software.

[2] = molecular target: NDM-1 (Klebsiella pneumoniae, UniProt C7C422); test: as above; assay type: biochemical; settings: 50 pM NDM-1, 1.5 μM FC5, 10 min pre-incubation
Sequence of NDM-1 (C7C422 29-270, looked up): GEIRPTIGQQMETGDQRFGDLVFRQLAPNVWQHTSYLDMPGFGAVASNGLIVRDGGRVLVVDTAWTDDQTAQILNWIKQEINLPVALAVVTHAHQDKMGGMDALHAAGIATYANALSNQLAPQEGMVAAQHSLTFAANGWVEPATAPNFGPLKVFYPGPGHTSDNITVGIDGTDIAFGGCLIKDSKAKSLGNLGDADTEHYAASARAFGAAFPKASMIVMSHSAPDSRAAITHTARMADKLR
Method: as §1

[3] = tested on: Klebsiella pneumoniae ATCC BAA-2146; test: Minimum inhibitory concentration (MIC), broth-microdilution (CLSI); assay type: cell-based; settings: ATCCBAA2146, compound alone, K. pneumoniae ATCC BAA-2146, read-out: Intrinsic MIC
Source text: (§2) The strain included in the study was Klebsiella pneumoniae ATCC BAA-2146 (Himedia®, India) with presence of New Delhi metallo-β-lactamase (NDM-1) gene. The quality control reference strains Escherichia coli ATCC 25922 and Pseudomonas aeruginosa ATCC 27853 were procured from Himedia®, India.
MIC values were identified through broth-microdilution in sterilized 96-well polystyrene flat-bottom microtitre plates (Cole-Parmer®) according to the guideline of the Clinical and Laboratory Standards Institute (CLSI) (CLSI; Methods for dilution antimicrobial susceptibility tests for bacteria that grow aerobically; Clinical Laboratory Standards Institute, M07-A09, 2012). This method involves the use of BBL™ Cation-adjusted Mueller-Hinton II Broth (CA-MHB; BD) and the strain (Klebsiella pneumoniae ATCC BAA-2146) concentration was adjusted to 5×10^5 CFU/mL. After 16-18 h of incubation at various concentrations of Imipenem, Meropenem (Alfa Aesar), or test compounds at 37° C., MIC was defined as the lowest concentration of antibiotic or test compound with no visible growth.

[4] = tested on: Klebsiella pneumoniae ATCC BAA-2146; test: Checkerboard synergy assay in combination with Imipenem; assay type: cell-based; settings: K. pneumoniae ATCC BAA-2146; for Fold reduction in Imipenem MIC in the presence of compounds (μg/mL) 4: compound at 4 μg/mL; for Fold reduction in Imipenem MIC in the presence of compounds (μg/mL) 8: compound at 8 μg/mL; for Fold reduction in Imipenem MIC in the presence of compounds (μg/mL) 16: compound at 16 μg/mL; for Fold reduction in Imipenem MIC in the presence of compounds (μg/mL) 32: compound at 32 μg/mL
Source text: as §2
(§3) The fold modulation activity of test compounds, in combination with Imipenem or Meropenem, was checked against Klebsiella pneumoniae ATCC BAA-2146 strain by the broth-microdilution checkerboard synergy assay. The plates contained 5×10^5 CFU/mL bacterial inocula and 2-fold serial dilutions of the antibiotics (128-2 μg/mL) as well as test compounds (32-4 μg/mL) in a total volume of 200 μL of CA-MHB. Dimethyl sulfoxide (DMSO, ≤2.5%) was included as vehicle control. Following 16-18 h of incubation at 37° C., the MICs of antibiotics as well as drug combinations were visually inspected.

[5] = tested on: Klebsiella pneumoniae ATCC BAA-2146; test: Checkerboard synergy assay in combination with Meropenem; assay type: cell-based; settings: K. pneumoniae ATCC BAA-2146; for Fold reduction in meropenem MIC in the presence of compounds (μg/mL) 4: compound at 4 μg/mL; for Fold reduction in meropenem MIC in the presence of compounds (μg/mL) 8: compound at 8 μg/mL; for Fold reduction in meropenem MIC in the presence of compounds (μg/mL) 16: compound at 16 μg/mL; for Fold reduction in meropenem MIC in the presence of compounds (μg/mL) 32: compound at 32 μg/mL
Source text: as §2, §3

Sequence of IMP-1 (P52699 19-246, looked up, species assumed): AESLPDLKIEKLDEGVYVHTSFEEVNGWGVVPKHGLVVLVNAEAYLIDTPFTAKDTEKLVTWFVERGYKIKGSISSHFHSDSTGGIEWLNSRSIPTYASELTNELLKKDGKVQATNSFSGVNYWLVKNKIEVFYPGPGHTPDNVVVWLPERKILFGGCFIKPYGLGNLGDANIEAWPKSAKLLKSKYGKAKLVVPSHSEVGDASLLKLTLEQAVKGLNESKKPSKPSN

Row | Compound | IC50 [1] [µM] | IC50 [2] [µM] | MIC ([3]; Imipenem series) [µg/mL] | MIC ([3]; meropenem series) [µg/mL] | Fold reduction in Imipenem MIC in the presence of compounds (μg/mL) 4 [4] [fold] | Fold reduction in Imipenem MIC in the presence of compounds (μg/mL) 8 [4] [fold] | Fold reduction in Imipenem MIC in the presence of compounds (μg/mL) 16 [4] [fold] | Fold reduction in Imipenem MIC in the presence of compounds (μg/mL) 32 [4] [fold] | Fold reduction in meropenem MIC in the presence of compounds (μg/mL) 4 [5] [fold] | Fold reduction in meropenem MIC in the presence of compounds (μg/mL) 8 [5] [fold] | Fold reduction in meropenem MIC in the presence of compounds (μg/mL) 16 [5] [fold] | Fold reduction in meropenem MIC in the presence of compounds (μg/mL) 32 [5] [fold]
1 | COc1cc(OC)cc(-c2c(C(=O)O)[nH]c3c2CCc2ccccc2-3)c1 [Example 61, 3-(3,5-dimethoxyphenyl)-4,5-dihydro-1H-benzo[g]indole-2-carboxylic Acid] | 0.495 | 0.049 | > 128 | > 128 | 4 | 8 | 8 | 8 | 4 | 4 | 8 | 8
2 | O=C(O)c1[nH]c2c(c1-c1ccc(Cl)cc1Cl)CCc1ccccc1-2 [Example 46, 3-(2,4-dichlorophenyl)-4,5-dihydro-1H-benzo[g]indole-2-carboxylic acid] | 10.4 | 0.306 | > 128 | > 128 | 4 | 4 | 8 | 16 | 4 | 4 | 8 | 16
3 | O=C(O)c1[nH]c2c(c1-c1ccccc1F)CCc1ccccc1-2 [Example 41, 3-(2-Fluorophenyl)-4,5-dihydro-1H-benzo[g]indole-2-carboxylic Acid] | 1.34 | 0.256 | > 128 | > 128 | 4 | 4 | 8 | 8 | 4 | 4 | 4 | 8

Results, then the molecule that gave them:

Row | IC50 [1] [µM] | IC50 [2] [µM] | MIC ([3]; Imipenem series) [µg/mL] | MIC ([3]; meropenem series) [µg/mL] | Fold reduction in Imipenem MIC in the presence of compounds (μg/mL) 4 [4] [fold] | Fold reduction in Imipenem MIC in the presence of compounds (μg/mL) 8 [4] [fold] | Fold reduction in Imipenem MIC in the presence of compounds (μg/mL) 16 [4] [fold] | Fold reduction in Imipenem MIC in the presence of compounds (μg/mL) 32 [4] [fold] | Fold reduction in meropenem MIC in the presence of compounds (μg/mL) 4 [5] [fold] | Fold reduction in meropenem MIC in the presence of compounds (μg/mL) 8 [5] [fold] | Fold reduction in meropenem MIC in the presence of compounds (μg/mL) 16 [5] [fold] | Fold reduction in meropenem MIC in the presence of compounds (μg/mL) 32 [5] [fold] | Compound
4 | 18.3 | 2.65 | > 64 | > 64 | 2 | 2 | 2 | 4 | 2 | 2 | 4 | 4 | COc1ccc(-c2c(C(=O)O)[nH]c3c2CCc2ccccc2-3)cc1 [Example 36, 3-(4-Methoxyphenyl)-4,5-dihydro-1H-benzo[g]indole-2-carboxylic Acid]
5 | 11.1 | 0.604 | > 128 | > 128 | 4 | 4 | 8 | 8 | 4 | 4 | 8 | 8 | O=C(O)c1[nH]c2c(c1-c1ccncc1)CCc1ccccc1-2 [Example 51, 3-(pyridin-4-yl)-4,5-dihydro-1H-benzo[g]indole-2-carboxylic Acid]
